# Results: US7063966B2, “Chimeric G protein coupled receptors” (SRI International, priority 2001, dated 2006)
# Like-named read-outs stand apart in the source and are kept apart here.
# How the values were obtained:
# Type in all cases: cell-based
# [1] = biological target: T1, Edg1/3(i3ct) (Homo sapiens, UniProt P21453, DEL241-247/F237N/K239N/K250R/K256R/L235V/L252M/N315S/R231S/R234K/R238H/T230S/T236A); test: Dose response of intracellular calcium mobilization (FLIPR) in HTC4 cells expressing chimeric Edg1/3(i3ct)
# T1 construct: DNA encoding the full length Edg 1/3(i3ct) chimera was then produced in a tertiary PCR reaction; expressed in transfected cells
# T1 sequence (P21453 with tags, fused parts or gaps with the stated changes): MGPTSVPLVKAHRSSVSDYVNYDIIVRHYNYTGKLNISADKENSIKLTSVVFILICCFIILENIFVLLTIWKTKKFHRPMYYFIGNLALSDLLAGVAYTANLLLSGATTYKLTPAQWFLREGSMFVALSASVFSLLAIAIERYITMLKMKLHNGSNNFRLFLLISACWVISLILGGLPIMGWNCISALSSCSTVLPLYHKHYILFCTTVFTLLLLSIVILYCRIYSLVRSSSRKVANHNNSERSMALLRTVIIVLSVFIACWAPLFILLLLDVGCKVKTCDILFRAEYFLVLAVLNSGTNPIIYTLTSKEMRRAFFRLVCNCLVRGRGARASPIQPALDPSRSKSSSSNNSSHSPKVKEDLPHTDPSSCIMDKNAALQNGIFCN
# [2] = biological target: Edg 1 (Homo sapiens, UniProt P21453); test: Intracellular calcium mobilization (FLIPR) in HTC4 cells expressing Edg 1; conditions: 100 nM S1P, FIG. 2
# Edg 1, sequence (P21453 whole entry): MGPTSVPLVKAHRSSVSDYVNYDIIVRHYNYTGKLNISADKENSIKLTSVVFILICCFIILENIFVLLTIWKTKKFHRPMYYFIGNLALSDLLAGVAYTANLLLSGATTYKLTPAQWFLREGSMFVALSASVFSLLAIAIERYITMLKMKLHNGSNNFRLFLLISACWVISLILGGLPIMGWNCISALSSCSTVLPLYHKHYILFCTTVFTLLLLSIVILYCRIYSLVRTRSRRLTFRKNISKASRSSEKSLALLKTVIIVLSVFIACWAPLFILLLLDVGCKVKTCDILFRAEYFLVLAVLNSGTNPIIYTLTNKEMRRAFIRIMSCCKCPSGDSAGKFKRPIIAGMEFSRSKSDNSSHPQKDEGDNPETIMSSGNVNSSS
# Method: (§1) Media from GP-293 cells was collected and filtered through a […] PES syringe filter to remove cell debris. Polybrene (hexadimethrine bromide, Sigma) was added to each virus laden supernatant to a final concentration of […]. After removing the culture medium from the target cells, the virus-laden medium was used to overlay the host cell line HTC4 (rat hepatoma cell line; from Ed Goetzl, UCSF). Following infection, cells were incubated for 18–24 hours. Cells resistant to antibiotic (Geneticin, G418, […], Sigma) were selected. Clonal populations were selected from the pooled stable cells using a standard limiting dilution technique (adapted from “Antibodies: A Laboratory Manual”; 1988, Harlow, E. and Lane, D., Cold Spring Harbor Laboratory, New York).
# (§2) HTC4 rat hepatoma cells stably transfected with Edg 1, Edg 1/3(ct), Edg1/3(i3ct) or Edg1/3(i2i3ct) according to Example 6.7 were plated on 384-well plates and loaded with a calcium dye loading kit (Molecular Devices, Sunnyvale, Calif.) for 1 hour at room temperature. Cells were then placed on FLIPR^384 (Molecular Devices, Sunnyvale, Calif.) and excited by an argon laser at 488 nm. In this assay, fluorescence changes over basal levels indicate an increase in intracellular calcium. In FIG. 2, basal fluorescence is at 0 (arbitrary units). […]
# [3] = biological target: T1, Edg1/3(i3ct); test: Intracellular calcium mobilization (FLIPR) in HTC4 cells expressing Edg1/3(i3ct), single concentration; conditions: 100 nM S1P, FIG. 2
# Method: as §1, §2
# [4] = biological target: T2, Edg1/3(i2i3ct) (Homo sapiens, UniProt P21453, DEL241-247/F158H/F237N/G154A/H152Y/I144L/K150R/K239N/K250R/K256R/L147I/L151P/L235V/L252M/N153D/N156K/N157R/N315S/R231S/R234K/R238H/S155N/T230S/T236A/Y143H); test: Intracellular calcium mobilization (FLIPR) in HTC4 cells expressing Edg1/3(i2i3ct); conditions: 100 nM S1P, FIG. 2
# T2 construct: DNA encoding the full length Edg 1/3(i2i3ct) chimera was then produced in a tertiary PCR reaction; expressed in transfected cells
# T2 sequence (P21453 with tags, fused parts or gaps with the stated changes): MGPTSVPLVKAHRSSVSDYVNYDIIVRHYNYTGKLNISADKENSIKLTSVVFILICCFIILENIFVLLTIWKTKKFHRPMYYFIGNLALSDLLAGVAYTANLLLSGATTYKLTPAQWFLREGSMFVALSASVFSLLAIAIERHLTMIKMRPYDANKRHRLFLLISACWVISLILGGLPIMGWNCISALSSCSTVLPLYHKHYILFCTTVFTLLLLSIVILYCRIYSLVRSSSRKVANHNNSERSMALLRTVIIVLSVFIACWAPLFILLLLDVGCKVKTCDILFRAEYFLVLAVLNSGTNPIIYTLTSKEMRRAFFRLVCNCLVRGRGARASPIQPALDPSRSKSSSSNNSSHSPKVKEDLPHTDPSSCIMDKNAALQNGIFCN
# Method: as §1, §2
# [5] = biological target: T3, Edg 1/3(ct) (Homo sapiens, UniProt P21453, N315S); test: Intracellular calcium mobilization (FLIPR) in HTC4 cells expressing Edg 1/3(ct); conditions: 100 nM S1P, FIG. 4
# T3 construct: DNA encoding the full length Edg 1/3(ct) chimera was produced in a secondary PCR reaction; expressed in transfected cells
# T3 sequence (P21453 with tags, fused parts or gaps N315S): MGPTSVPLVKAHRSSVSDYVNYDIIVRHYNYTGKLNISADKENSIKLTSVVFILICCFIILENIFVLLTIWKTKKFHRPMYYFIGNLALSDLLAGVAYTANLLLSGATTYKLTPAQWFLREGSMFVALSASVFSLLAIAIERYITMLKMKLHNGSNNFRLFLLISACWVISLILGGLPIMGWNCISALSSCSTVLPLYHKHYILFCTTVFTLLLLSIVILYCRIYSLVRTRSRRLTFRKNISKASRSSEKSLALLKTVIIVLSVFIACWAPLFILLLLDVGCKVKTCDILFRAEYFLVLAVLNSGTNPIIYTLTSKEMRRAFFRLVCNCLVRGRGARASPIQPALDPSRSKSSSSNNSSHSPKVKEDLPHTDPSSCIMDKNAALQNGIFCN
# Method: as §1, §2
# [6] = biological target: T4, Edg5/3(i3ct) (Homo sapiens, UniProt O95136, A221R/A225S/D222K/F113S/H220S/INS224NHNN/K233R/L229M/M223V/P226E/Q227R/R217K/T228S); test: Intracellular calcium mobilization (FLIPR) in HTC4 cells expressing Edg5/3(i3ct); conditions: 100 nM S1P, FIG. 5
# T4 construct: DNA encoding the full length Edg 5/3(i3ct) chimera was then produced in a tertiary PCR reaction; expressed in transfected cells
# T4 sequence (O95136 with tags, fused parts or gaps with the stated changes): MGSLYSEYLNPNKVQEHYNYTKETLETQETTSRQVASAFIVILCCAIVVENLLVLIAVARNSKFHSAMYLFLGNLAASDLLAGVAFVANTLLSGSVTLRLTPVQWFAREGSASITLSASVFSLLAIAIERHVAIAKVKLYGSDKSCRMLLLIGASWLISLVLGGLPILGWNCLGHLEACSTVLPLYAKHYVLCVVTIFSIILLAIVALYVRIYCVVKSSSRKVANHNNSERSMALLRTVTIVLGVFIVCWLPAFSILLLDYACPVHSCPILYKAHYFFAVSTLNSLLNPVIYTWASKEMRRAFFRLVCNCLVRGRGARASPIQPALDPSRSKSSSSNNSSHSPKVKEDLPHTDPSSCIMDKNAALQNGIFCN
# Method: as §1
# (§3) HTC4 rat hepatoma cells stably transfected with Edg5/3(i3ct) and Edg8/4(ct) according to Example 6.7 were plated on 384-well plates and loaded with a calcium dye loading kit (Molecular Devices, Sunnyvale, Calif.) for 1 hour at room temperature. Cells were then placed on FLIPR^384 (Molecular Devices, Sunnyvale, Calif.) and excited by an argon laser at 488 nm. In this assay, fluorescence changes over basal levels indicate an increase in intracellular calcium. […] The cells were contacted with 100 nM of the Edg 5 and Edg 8 agonist sphingosine-1-phosphate (S1P) 50 seconds after the start of the assay.
# [7] = biological target: T5, Edg8/4(ct) (Homo sapiens, UniProt Q9H228); test: Intracellular calcium mobilization (FLIPR) in HTC4 cells expressing Edg8/4(ct); conditions: 100 nM S1P, FIG. 5
# T5 construct: DNA encoding the full length Edg 8/4(ct) chimera was produced in a secondary PCR reaction; expressed in transfected cells
# T5 sequence (Q9H228 with tags, fused parts or gaps): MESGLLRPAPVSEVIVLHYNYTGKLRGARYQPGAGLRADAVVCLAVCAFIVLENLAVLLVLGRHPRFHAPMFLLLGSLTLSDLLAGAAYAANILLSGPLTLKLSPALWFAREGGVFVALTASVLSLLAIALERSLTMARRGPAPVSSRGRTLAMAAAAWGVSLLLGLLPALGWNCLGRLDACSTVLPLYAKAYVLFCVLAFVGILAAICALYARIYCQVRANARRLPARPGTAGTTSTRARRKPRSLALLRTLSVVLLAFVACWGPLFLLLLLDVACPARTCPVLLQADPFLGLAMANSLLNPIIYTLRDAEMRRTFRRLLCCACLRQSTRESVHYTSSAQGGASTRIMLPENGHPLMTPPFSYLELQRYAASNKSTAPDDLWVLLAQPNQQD
# Method: as §1, §3
SMILES,EC50 [1] [nM],change in intracellular calcium [2],change in intracellular calcium [3],change in intracellular calcium [4],intracellular calcium mobilization [5],intracellular calcium mobilization [6],intracellular calcium mobilization [7],"EC50 ([1]; HTC4 rat hepatoma cells stably transfected with Edg1/3(i3ct), FIG. 3, read-out: EC50 of intracellular calcium mobilization) [nM]"
"CCCCCCCCCCCCC/C=C/[C@@H](O)[C@@H](N)COP(=O)(O)O [S1P, sphingosine-1-phosphate]",~10,no change in intracellular calcium,significant change in intracellular calcium,significant change in intracellular calcium,"functional, although not as robust as Edg1/3(i3ct) or Edg1/3(i2i3ct)",mobilize intracellular calcium,mobilize intracellular calcium,
"CCCCCCCCCCCCCCC[C@@H](O)[C@@H](N)COP(=O)(O)O [dihydro S1P, dihydro sphingosine-1-phosphate]",,,,,,,,~10
